{"source": "paper PMC8996404", "about": "“The pharmacokinetics of buserelin after intramuscular administration in pigs and cows” (BMC Veterinary Research, 2022)", "key": {"[1]": {"experiment": "Plasma pharmacokinetics of buserelin after i.m. administration in cows", "type": "in vivo", "settings": "for MRT: cow, 3 mg per cow", "method": "(§1) The UPLC-MS/MS system (Waters Acquity UPLC and Waters Quattro Premier, Waters Co., USA) and the chromatographic column (Agilent Poroshell 120 EC-C18, 4.6 × 100 mm, 2.7 µm) were used in this study. The separation was performed with 0.1% formic acid in water (mobile phase solvent A) and 0.1% formic acid in acetonitrile (solvent B) with a flow rate of 0.6 mL/min. The gradient elution program was optimized as follow: 75% A (0–0.5 min), 10% A (5–7 min) 75% A (7.1–10 min). The sample was injected at a volume of 5 µL at 30℃. The mass spectrometer was operated in the positive ion detection mode with the capillary voltage set at 5.5 kV and the source temperature was 550 ℃. Others parameters were as follows: nebulizer gas pressure was 55 psi, ion source gas pressure was 60 psi, curtain gas pressure was 30 psi, declustering potential was 68 V, entrance potential was 10 V, and collision cell exit potential was 13 V.\n(§2) Five healthy adult female Danish Landrance × Yorkshire × Duroc pigs (100–120 days, 50–60 kg, Ningbo Kuangdai Husbandry Co., Ltd. Ningbo China) and five healthy adult female Holstein cows (1.5–2 years, 440–500 kg, Ningbo Milk Group Co., Ltd. Ningbo China) were randomly selected to use in this research. All animals were examined by a local veterinarian with regard to physical, hematologic, and biochemical conditions during the two-week adaptation period. The two protocols used in this study were reviewed and approved by the Institutional Animal Care and Use Committee of China Agricultural University (pigs: 11605–20-D-007; cows: 11605–20-B-003). Buserelin injection solution (0.5 mg/mL, 10 mL) was acquired from Ningbo Sansheng Pharmaceutical Company. In order to avoid introducing bias results from feeding, each animal in the study fasted for approximately 12 h. Each pig received 1 mg buserelin injection solution (about 0.018 mg/kg), and each cow received 3 mg (about 0.0064 mg/kg). During the entire experiment, water was available ad libitum. Adverse symptoms were recorded and evaluated. Blood samples of 5 mL were collected into heparinized tube (pigs: anterior vena cava; cows: vena jugularis interna) at 0, 0.083, 0.167, 0.333, 0.5, 0.75, 1, 1.5, 2, 3, 4, 5, 6, 7, and 8 h after i.m. administration. The blood samples were centrifuged for 5 min at 2775 × g. Plasma samples were stored in -20 ℃ until analysis (within 21 days of collection).\n(§3) Frozen plasma samples were thawed and vortexed, and 500 µL plasma and 1 mL 0.1% formic acid in acetonitrile were mixed together. After 10 min ultrasonic treatment, the samples were centrifuged for 10 min at 11,100 × g. The upper layer was collected and the remainder was treated twice. These two supernatants were added together, the samples were evaporated via nitrogen gas at 40 ℃, and redissolved in 2.5 mL 0.1% formic acid in acetonitrile-0.1% formic acid in water (1:3 v/v). After filtered through a 0.22 µm microbore cellulose membrane, the samples were collected and bottled to UPLC-MS/MS system for analysis.\n(§4) Plasma concentrations of buserelin were analyzed using the established method, and the pharmacokinetic parameters were calculated via a non-compartmental analysis model 200 in WinNonlin software (WinNolin 8.1.0 Certara, Pharsight, Mountain View, CA, USA) and expressed in mean ± standard deviation (SD), and no statistical tests were applied."}, "[2]": {"experiment": "Stock solution stability test of buserelin", "type": "physicochemical", "settings": "stock solution in methanol, concentration 100 ng/mL, UPLC-MS/MS", "method": "A standard stock solution (1 mg/mL) was prepared by dissolving 2 mg standard buserelin in 2 mL methanol. This solution was stored in brown glass bottles at -20 ℃. Working solutions were prepared by diluting the stock solution with methanol.\nSelectivity has been assessed by comparing the chromatograms of blank plasma samples and those of corresponding items with buserelin to exclude the interfering peaks. The calibration curve was established by spiking the blank matrix with known concentration of buserelin. Limit of detection (LOD) and Limit of quantification (LOQ) were determined as the concentrations of buserelin which produced signal/ noise ratio of 3 and 10, respectively. For linearity of this method, calibration curves were generated by least squares regression method with a weighting factor and regression coefficient. Recovery was determined by comparing the analytical results of the extracted quality control (QC) samples with pure standard solution. The accuracy was assessed as the percentage of the measured concentration to the nominal standard concentration. The precision was expressed by coefficient of variation. Stability was assessed by autosampler, benchtop, freeze–thaw, and stock solution test. […]"}, "[3]": {"settings": "cited from earlier work", "method": "After being approved by the European Medicines Agency (EMA) in 1995 [1], there are some pharmacokinetic studies of buserelin been reported in humans and rats following subcutaneous (s.c.), intranasal (i.n.), or intravenous (i.v.) routes. […] Regardless of the administration route of buserelin, the elimination of half- ... || The Vd was 80.49 ± 43.88 L for pigs and 839.88 ± 174.77 L for cows, which is larger than pigs (304 ± 112 mL/kg) at a single dose 1 mg i.v., and dogs (50.1 ± 2.4 mL/kg) at a single dose 5 mg i.v.. High plasma concentration, high bonding rate, means more drugs cannot across the membrane and barrier. Therefore, binding changes can affect the distribution of drugs. Because protein binding of buserelin is about 15% [2], it is proportional to the body volume and body weight and animals using in this study had larger volume of body water or extracellular water. It has been repo ..."}, "[4]": {"experiment": "Plasma pharmacokinetics of buserelin after i.m. administration in pigs", "type": "in vivo", "settings": "for MRT: pig, 1 mg per pig", "method": "as §1, §2, §3, §4"}, "[5]": {"settings": "female, Holstein, im, single i.m. dose 3 mg per cow, plasma, mean ± SD, n = 5"}, "[6]": {"settings": "single i.m. dose 3 mg per cow, plasma, mean ± SD, n = 5"}, "[7]": {"settings": "female, Danish Landrance × Yorkshire × Duroc, im, single i.m. dose 1 mg per pig, plasma, mean ± SD, n = 5"}, "[8]": {"settings": "single i.m. dose 1 mg per pig, plasma, mean ± SD, n = 5"}}, "note": "Marks after values point to notes of the source that are not given here."}
{"compound": "CCNC(=O)[C@@H]1CCCN1C(=O)[C@H](CCCNC(=N)N)NC(=O)[C@H](CC(C)C)NC(=O)[C@@H](COC(C)(C)C)NC(=O)[C@H](Cc1ccc(O)cc1)NC(=O)[C@H](CO)NC(=O)[C@H](Cc1c[nH]c2ccccc12)NC(=O)[C@H](Cc1cnc[nH]1)NC(=O)[C@@H]1CCC(=O)N1", "note": "[buserelin, Buserelin]", "values": [{"measurement": "MRT", "setting": "[1]; female, Holstein, plasma, im, single i.m. dose 3 mg per cow, plasma, mean ± SD, n = 5, read-out: MRT0-t", "result": "1.85 ± 0.56", "unit": "h"}, {"measurement": "MRT", "setting": "[1]; female, Holstein, plasma, im, single i.m. dose 3 mg per cow, plasma, mean ± SD, n = 5, read-out: MRT0-∞", "result": "2.16 ± 0.7", "unit": "h"}, {"measurement": "tmax", "setting": "[1]; female, Holstein, im, single i.m. dose 3 mg per cow (about 0.0064 mg/kg), plasma, UPLC-MS/MS, non-compartmental, mean ± SD, n = 5", "result": "1.05 ± 0.27", "unit": "h"}, {"measurement": "AUC(0-t)", "setting": "[1]; female, Holstein, im, single i.m. dose 3 mg per cow, plasma, 0 to last measurement point, mean ± SD, n = 5", "result": "5.63 ± 1.86", "unit": "ng·h/mL"}, {"measurement": "Cmax", "setting": "[1]; female, Holstein, im, single i.m. dose 3 mg per cow, plasma, UPLC-MS/MS, non-compartmental, mean ± SD, n = 5", "result": "2.68 ± 0.36", "unit": "ng/mL"}, {"measurement": "AUC(0-inf)", "setting": "[1]; [5]", "result": "5.99 ± 2.01", "unit": "ng·h/mL"}, {"measurement": "CL/F", "setting": "[1]; [5]", "result": 9080, "unit": "mL/min"}, {"measurement": "Vd/F", "setting": "[1]; [5]", "result": "840 ± 175", "unit": "L"}, {"measurement": "half-life", "setting": "[1]; female, Holstein, im, single i.m. dose 3 mg per cow, plasma, non-compartmental, mean ± SD, n = 5, read-out: t1/2 (elimination half-time) (converted)", "result": "1.13 ± 0.3", "unit": "h"}, {"measurement": "Cmax/D", "setting": "[1]; single i.m. dose 3 mg per cow (about 0.0064 mg/kg), rate of Cmax to dosage, mean ± SD, n = 5", "result": "420.35 ± 58.40", "unit": "ng/mL/mg/kg"}, {"measurement": "Adverse effects", "setting": "[1]; single i.m. dose 3 mg per cow, n = 5", "result": "No adverse effects were observed"}, {"measurement": "AUMClast", "setting": "[1]; [6]", "result": "11.23 ± 6.89", "unit": "h × h × ng/mL"}, {"measurement": "ka (absorption rate constant)", "setting": "[1]; [6]", "result": "0.58 ± 0.17", "unit": "h⁻¹"}, {"measurement": "Stock solution stability, Mean ± SD", "setting": "[2]; column Cow", "result": "2.51 ± 0.05 Peak area (10^5)"}, {"measurement": "Stock solution stability, Mean ± SD", "setting": "[2]; column Pig", "result": "2.50 ± 0.05 Peak area (10^5)"}, {"measurement": "Protein binding", "setting": "[3]", "result": "about 15%"}, {"measurement": "rapid initial half time / t1/2", "setting": "[3]; guinea pigs, i.v. ref 1", "result": 0.2, "unit": "h"}, {"measurement": "tmax", "setting": "[4]; female, Danish Landrance × Yorkshire × Duroc, im, single i.m. dose 1 mg per pig (about 0.018 mg/kg), plasma, UPLC-MS/MS, non-compartmental, mean ± SD, n = 5", "result": "0.57 ± 0.18", "unit": "h"}, {"measurement": "AUC(0-t)", "setting": "[4]; female, Danish Landrance × Yorkshire × Duroc, im, single i.m. dose 1 mg per pig, plasma, 0 to last measurement point, mean ± SD, n = 5", "result": "25 ± 6.93", "unit": "ng·h/mL"}, {"measurement": "Cmax", "setting": "[4]; female, Danish Landrance × Yorkshire × Duroc, im, single i.m. dose 1 mg per pig, plasma, UPLC-MS/MS, non-compartmental, mean ± SD, n = 5", "result": "11 ± 2.04", "unit": "ng/mL"}, {"measurement": "AUC(0-inf)", "setting": "[4]; [7]", "result": "25.8 ± 6.75", "unit": "ng·h/mL"}, {"measurement": "CL/F", "setting": "[4]; [7]", "result": 686, "unit": "mL/min"}, {"measurement": "Vd/F", "setting": "[4]; [7]", "result": "80.5 ± 43.9", "unit": "L"}, {"measurement": "half-life", "setting": "[4]; female, Danish Landrance × Yorkshire × Duroc, im, single i.m. dose 1 mg per pig, plasma, non-compartmental, mean ± SD, n = 5, read-out: t1/2 (elimination half-time) (converted)", "result": "1.29 ± 0.4", "unit": "h"}, {"measurement": "MRT", "setting": "[4]; female, Danish Landrance × Yorkshire × Duroc, plasma, im, single i.m. dose 1 mg per pig, plasma, mean ± SD, n = 5, read-out: MRT0-t", "result": "2.13 ± 0.27", "unit": "h"}, {"measurement": "MRT", "setting": "[4]; female, Danish Landrance × Yorkshire × Duroc, plasma, im, single i.m. dose 1 mg per pig, plasma, mean ± SD, n = 5, read-out: MRT0-∞", "result": "2.35 ± 0.23", "unit": "h"}, {"measurement": "Cmax/D", "setting": "[4]; single i.m. dose 1 mg per pig (about 0.018 mg/kg), rate of Cmax to dosage, mean ± SD, n = 5", "result": "610.19 ± 79.93", "unit": "ng/mL/mg/kg"}, {"measurement": "Adverse effects", "setting": "[4]; single i.m. dose 1 mg per pig, n = 5", "result": "No adverse effects were observed"}, {"measurement": "AUMClast", "setting": "[4]; [8]", "result": "59.59 ± 16.54", "unit": "h × h × ng/mL"}, {"measurement": "ka (absorption rate constant)", "setting": "[4]; [8]", "result": "0.48 ± 0.07", "unit": "h⁻¹"}]}
